Patent US20070167492A1, “Molluscicidal agents” (priority 2003, published 2007)

Assays:
Format in all cases: in vivo
[1] = tested on: Winter wheat (Kampa race) seeds; assay: Seed germination test of treated winter wheat seeds (rolled in paper); details: 3x50 seeds, 6 days at 22° C.
In short: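 Seeds were disinfected with fludioxonil-containing Beret Gold (2 ml per kg seed) and coated with Sepiret® for formulations unsuitable for coating. Germination of 3×50 seeds rolled in paper was scored after 6 days at continuous 22° C. under a 16 hours light regime.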

[2] = tested on: Deroceras reticulatum (grey field slug); assay: Example 1: pot test, treated winter wheat seed with 5 adult slugs per pot, 14 days
In short: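 Fludioxonil-disinfected winter wheat seed (Kampa, 40 per pot) sown on quartz sand over potting soil with 5 adult slugs per pot; ±15° C., ±90% RH, 12 h light/12 h dark, 4 replicates. Damaged seeds, plants, dead slugs and fecal pellets counted up to day 14; F-tests and Student-tests.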

[3] = tested on: Deroceras reticulatum (grey field slug); assay: Example 2: pot re-test, treated winter wheat seed with 5 adult slugs per pot, 7 days
Excerpt: Based on the results of the experiment described in Example 1, a selection was made from the various test numbers of that experiment for re-testing, partly to confirm the conclusions of that experiment and to test the unexpected outcome of some test compounds.
The selection of test numbers (Test No.) used in the present experiment relative to those of the experiment described in Example 1 is shown in Table 7.
The same seeds as described in Example 1 were sown in earthenware pots with an internal diameter of 20 cm and a height of 18 cm, filled with 7 cm of potting soil (Trio BV, Weesp, The Netherlands) and with a top 2 cm of white quartz sand. A total of 40 winter wheat seeds was placed in each pot, in a pattern of concentric circles on top of the quartz sand, the germ of the seed facing upwards. To each pot a total of 5 adult specimens of the test slug Deroceras reticulatum (grey field slug) were added. The pots were incubated at 18-19° C. with a relative humidity of ±95% and light regime of ±18 hours light/6 hours dark, without artificial lighting. The pots were not irrigated overhead. In total, 4 parallel tests were performed for each test.
The number of damaged seeds was, the number of plants present (germinated and not eaten or damaged by the slugs), the number of dead slugs and of the number of fecal pellets were determined after 2, 3 and 7 days following the addition of the slugs.
The data were statistically analysed by using F-tests (α=0.05) and pair-wise Student-tests.

[4] = 2 ml formulated per kg seed, 2 days after sowing
[5] = 2 ml formulated per kg seed, 3 days after sowing
[6] = 2 ml formulated per kg seed, 7 days after sowing
[7] = 2 ml formulated per kg seed, 10 days after sowing
[8] = 2 ml formulated per kg seed, 14 days after sowing
[9] = 4 ml formulated per kg seed, 2 days after sowing
[10] = 4 ml formulated per kg seed, 3 days after sowing
[11] = 4 ml formulated per kg seed, 7 days after sowing
[12] = 4 ml formulated per kg seed, 10 days after sowing
[13] = 4 ml formulated per kg seed, 14 days after sowing
[14] = 8 ml formulated per kg seed, 2 days after sowing
[15] = 8 ml formulated per kg seed, 3 days after sowing
[16] = 8 ml formulated per kg seed, 7 days after sowing
[17] = 8 ml formulated per kg seed, 10 days after sowing
[18] = 8 ml formulated per kg seed, 14 days after sowing
[19] = Example 2, 2 ml formulated per kg seed, 2 days after sowing
[20] = Example 2, 2 ml formulated per kg seed, 3 days after sowing
[21] = Example 2, 2 ml formulated per kg seed, 7 days after sowing
[22] = Example 2, 4 ml formulated per kg seed, 2 days after sowing
[23] = Example 2, 4 ml formulated per kg seed, 3 days after sowing
[24] = Example 2, 4 ml formulated per kg seed, 7 days after sowing
[25] = Example 2, after 2, 3 and 7 days

## CNC(=O)Oc1cc(C)c(SC)c(C)c1 [methiocarb, 4-methylthio-3,5-xylyl methylcarbamate]
[1]; 2 ml formulated per kg seed
  Percentage germinated: 61%
[1]; 4 ml formulated per kg seed
  Percentage germinated: 63%
[1]; 8 ml formulated per kg seed
  Percentage germinated: 27%
[2]; 2 ml formulated per kg seed
  number of utilizable plants after 14 days: 15.5
  percentage of damaged seeds after 14 days: 44%
[2]; [4]
  Mean number of damaged seeds per pot: 2.0
  Mean number of dead slugs per pot: 0.3
[2]; [5]
  Mean number fecal pellets per pot: 18
  Mean number of damaged seeds per pot: 5.3
  Mean number of dead slugs per pot: 0.3
  Mean number of plants present per pot: 10.5
[2]; [6]
  Mean number fecal pellets per pot: 43
  Mean number of damaged seeds per pot: 19.3
  Mean number of dead slugs per pot: 0.3
  Mean number of plants present per pot: 16.5
[2]; [7]
  Mean number fecal pellets per pot: 47
  Mean number of damaged seeds per pot: 17.0
  Mean number of dead slugs per pot: 0.3
  Mean number of plants present per pot: 19.8
[2]; [8]
  Mean number fecal pellets per pot: 50
  Mean number of damaged seeds per pot: 17.8
  Mean number of dead slugs per pot: 0.5
  Mean number of plants present per pot: 21.3
[2]; 4 ml formulated per kg seed
  number of utilizable plants after 14 days: 19.8
  percentage of damaged seeds after 14 days: 13%
[2]; [9]
  Mean number of damaged seeds per pot: 1.3
  Mean number of dead slugs per pot: 0
[2]; [10]
  Mean number fecal pellets per pot: 16
  Mean number of damaged seeds per pot: 3.3
  Mean number of dead slugs per pot: 0
  Mean number of plants present per pot: 7.8
[2]; [11]
  Mean number fecal pellets per pot: 34
  Mean number of damaged seeds per pot: 10.8
  Mean number of dead slugs per pot: 0.3
  Mean number of plants present per pot: 22.8
[2]; [12]
  Mean number fecal pellets per pot: 35
  Mean number of damaged seeds per pot: 4.8
  Mean number of dead slugs per pot: 0.3
  Mean number of plants present per pot: 30.3
[2]; [13]
  Mean number fecal pellets per pot: 36
  Mean number of damaged seeds per pot: 5.0
  Mean number of dead slugs per pot: 1.8
  Mean number of plants present per pot: 29.8
[2]; 8 ml formulated per kg seed
  number of utilizable plants after 14 days: 33.0
  percentage of damaged seeds after 14 days: 8%
[2]; [14]
  Mean number of damaged seeds per pot: 1.8
  Mean number of dead slugs per pot: 0
[2]; [15]
  Mean number fecal pellets per pot: 6
  Mean number of damaged seeds per pot: 2.5
  Mean number of dead slugs per pot: 0.3
  Mean number of plants present per pot: 4.3
[2]; [16]
  Mean number fecal pellets per pot: 23
  Mean number of damaged seeds per pot: 4.5
  Mean number of dead slugs per pot: 0.5
  Mean number of plants present per pot: 32.0
[2]; [17]
  Mean number fecal pellets per pot: 27
  Mean number of damaged seeds per pot: 3.3
  Mean number of dead slugs per pot: 1.3
  Mean number of plants present per pot: 33.8
[2]; [18]
  Mean number fecal pellets per pot: 27
  Mean number of damaged seeds per pot: 3.3
  Mean number of dead slugs per pot: 1.5
  Mean number of plants present per pot: 34.8
[2]; Example 1
  effect on the slug population: little effect on the slug population
[2]; Example 1, 2, 4 and 8 ml per kg of seed, from day 3 after sowing
  damaged seeds relative to the untreated pots: significantly less damaged seeds
[2]; Example 1, 2, 4 or 8 ml per kg of seed, after 3 (only 2 ml), 7, 10 and 14 days
  plants present relative to the untreated pots: significantly more plants present
[2]; Example 1, at each dosage and at each observation
  fecal pellets relative to the untreated seed: significantly less fecal pellets
[2]; Example 1, winter wheat seed treatment, dosages tested
  protection / slug controlling effect (conclusion): good protection to both seeds and plants
[3]; Example 2
  dead slugs observed during the course of the experiment: More dead slugs
  result of seed treatment against slugs (conclusion): fairly food protection of the seeds against slugs
[3]; Example 2, 2 ml formulated per kg seed
  percentage of damaged seeds after 7 days: 14%
[3]; [19]
  Mean number of damaged seeds per pot: 2.5
  Mean number of dead slugs per pot: 0.3
[3]; [20]
  Mean number of damaged seeds per pot: 4.8
  Mean number of dead slugs per pot: 0.5
[3]; [21]
  Mean number of damaged seeds per pot: 5.5
  Mean number of dead slugs per pot: 2.3
[3]; Example 2, 4 ml formulated per kg seed
  percentage of damaged seeds after 7 days: 9%
[3]; [22]
  Mean number of damaged seeds per pot: 1.8
  Mean number of dead slugs per pot: 0
[3]; [23]
  Mean number of damaged seeds per pot: 2.0
  Mean number of dead slugs per pot: 1.8
[3]; [24]
  Mean number of damaged seeds per pot: 3.5
  Mean number of dead slugs per pot: 3.3
[3]; [25]
  number of fecal pellets per pot relative to the untreated control: significant reduction in the number of fecal pellets
  plants present relative to the untreated seed: significantly more plants present
[3]; Example 2, two days after the start
  number of damaged seeds relative to the untreated seed: significant reduction in the number of damaged seeds
[3]; dosage 2 ml, 2 days
  Mean number of fecal pellets per pot: 1
  Mean number of plants present per pot: 9.0
[3]; dosage 2 ml, 3 days
  Mean number of fecal pellets per pot: 9
  Mean number of plants present per pot: 22.5
[3]; dosage 2 ml, 7 days
  Mean number of fecal pellets per pot: 20
  Mean number of plants present per pot: 34.0
  number of utilizable plants after 7 days: 26.8
[3]; dosage 4 ml, 2 days
  Mean number of fecal pellets per pot: 2
  Mean number of plants present per pot: 28.3
[3]; dosage 4 ml, 3 days
  Mean number of fecal pellets per pot: 7
  Mean number of plants present per pot: 33.3
[3]; dosage 4 ml, 7 days
  Mean number of fecal pellets per pot: 11
  Mean number of plants present per pot: 34.5
  number of utilizable plants after 7 days: 32.5
